From PMC7265429, “Characterization of a new small-molecule inhibitor of HDAC6 in glioblastoma” (Cell Death & Disease, 2020)

Test system: acetyl-α-tubulin (HDAC6 main target) in U251-MG cells
Assay: Western blot of acetyl-α-tubulin and cleaved PARP in U251-MG
Type: cell-based, human
Conditions: 10 nM, 48 h
Experimental: Immunoblots were performed following standard procedures. […] Detection was performed by chemiluminiscence using NOVEX ECL Chemi Substrate (ThermoFisher).

**Q.** `O=C(CCCCCCC(=O)Nc1ccccc1)NO` [SAHA, Suberoylanilide hydroxamic acid] was tested. Which α-tubulin hyperacetylation did it give?
**A.** The α-tubulin hyperacetylation was “did not”.
